Data taken from ChEMBL document CHEMBL3045896, “Synthesis of novel porphyrin-based lipids and their antibacterial activity” (2011).

Assays:
Assay type in all cases: functional
Conditions in all cases: read-out: DIZ
Klebsiella pneumoniae [1] = assay: Antibacterial activity against Klebsiella pneumoniae MTCC 109 at 75 ug/ml after overnight incubation by disk diffusion method
Staphylococcus aureus [2] = assay: Antibacterial activity against Staphylococcus aureus MTCC 96 at 75 ug/ml after overnight incubation by disk diffusion method
Proteus vulgaris [3] = assay: Antibacterial activity against Proteus vulgaris MTCC 1771 at 75 ug/ml after overnight incubation by disk diffusion method
Bacillus subtilis [4] = assay: Antibacterial activity against Bacillus subtilis MTCC 619 at 75 ug/ml after overnight incubation by disk diffusion method
Escherichia coli [5] = assay: Antibacterial activity against Escherichia coli MTCC 722 at 75 ug/ml after overnight incubation by disk diffusion method
Staphylococcus aureus [6] = assay: Antibacterial activity against Staphylococcus aureus MTCC 96 at 30 ug/ml after overnight incubation by disk diffusion method
Escherichia coli [7] = assay: Antibacterial activity against Escherichia coli MTCC 722 at 30 ug/ml after overnight incubation by disk diffusion method
Klebsiella pneumoniae [8] = assay: Antibacterial activity against Klebsiella pneumoniae MTCC 109 at 30 ug/ml after overnight incubation by disk diffusion method
Bacillus subtilis [9] = assay: Antibacterial activity against Bacillus subtilis MTCC 619 at 30 ug/ml after overnight incubation by disk diffusion method
Proteus vulgaris [10] = assay: Antibacterial activity against Proteus vulgaris MTCC 1771 at 30 ug/ml after overnight incubation by disk diffusion method

Compound	zone of inhibition at 75 µg/mL (Klebsiella pneumoniae [1]) [mm]	zone of inhibition at 75 µg/mL (Staphylococcus aureus [2]) [mm]	zone of inhibition at 75 µg/mL (Proteus vulgaris [3]) [mm]	zone of inhibition at 75 µg/mL (Bacillus subtilis [4]) [mm]	zone of inhibition at 75 µg/mL (Escherichia coli [5]) [mm]	zone of inhibition at 30 µg/mL (Staphylococcus aureus [6]) [mm]	zone of inhibition at 30 µg/mL (Escherichia coli [7]) [mm]	zone of inhibition at 30 µg/mL (Klebsiella pneumoniae [8]) [mm]	zone of inhibition at 30 µg/mL (Bacillus subtilis [9]) [mm]	zone of inhibition at 30 µg/mL (Proteus vulgaris [10]) [mm]
CCCCCCCCCCCCCCCCC/C1=c2\cc/c([nH]2)=C(\CCCCCCCCCCCCCCCCC)C2=N/C(=C\C3=NC(=CC3)/C=C3/C=CC1=N3)C=C2	10	13	12	14	13					
CCCCCCCCCCCCCCCCN(CCCCCCCCCCCCCCCC)Cc1c2nc(cc3ccc(cc4nc(cc5ccc1[nH]5)C=C4)[nH]3)C=C2	12	15	14	16	14					
O=C(N[C@H](CO)[C@H](O)c1ccc([N+](=O)[O-])cc1)C(Cl)Cl [CHLORAMPHENICOL]						23	31	24	23	14
